Values quoted from earlier work in publication PMC6260473 (Saudi Pharmaceutical Journal : SPJ, 2018).

System: human colorectal adenocarcinoma cell lined HT29
Conditions: read-out: IC50, cytotoxic effect, ref Nowak et al., 2014

Structure (SMILES)	IC50
COc1ccc(Cn2cnc3c(cc(N4CCOCC4)c4ccccc43)c2=O)cc1 [3-(4-methoxybenzyl)-6-(morpholin-4-yl)benzo[h]quinazolin-4(3H)-one]	4.12 µM
N.N.[Cl][Pt][Cl] [cisplatin]	8.47 µM
